Test system: patients with long-standing, moderate to severe RA
Experiment: Study 5 (open-label extension, adalimumab 40 mg eow + MTX, into 7th year): long-term efficacy (ACR, DAS28, TJC, SJC, HAQ) and withdrawals
Format: in vivo, human
Conditions: Year 7
Description: After these trials, patients were eligible to enroll in two separate OLE studies: Study 4 and Study 5. Patients were evaluated for efficacy and safety every 3 months.
Efficacy outcomes were evaluated as observed data: DAS28; ACR 20/50/70; Tender Joint Count (TJC); Swollen Joint Count (SJC); and HAQ Disability Index. Baseline demographics and disease characteristics were similar in both Study 4 and Study 5 consistent with moderate to severe RA, as shown below in Table 64: […]

adalimumab: human anti-TNF mAb (HUMIRA, Abbott Laboratories), described in U.S. Pat. No. 6,090,382 as D2E7
patients achieving clinical remission (DAS28<2.6): Over 40%

— patent publication US20120171123A1, “USES AND COMPOSITIONS FOR TREATMENT OF RHEUMATOID ARTHRITIS” (priority 2006, published 2012)
